Source: patent publication US20030083241A1, “Use of somatostatin receptor agonists in the treatment of human disorders of sleep hypoxia and oxygen deprivation” (priority 2001, published 2003)

Key:
[1] = system: GERD symptoms; assay: Clinical observation of GERD symptoms in a terminal cancer patient given octreotide; assay type: in vivo, human
Experimental: Development of the present invention was stimulated by an event in Applicant's clinical practice of oncology. Octretotide was added to the treatment program of a patient with terminal cancer because the patient's cancer concentrated radiolabelled octreotide on a nuclear medicine scan. Treatment was initiated with subcutaneous octreotide at a dose of 150 microgram twice daily, then three times daily, and then finally the patient was shifted to a longer-acting depot formulation of octreotide (Sandostatin LAR) that was given intramuscularly on a monthly basis.

[2] = system: TNF-alpha, Interleukin-1 beta and Interleukin-6; settings: cited from earlier work
[3] = system: obstructive sleep apnea; settings: octreotide given as therapy for the endocrine disorder; cited from earlier work
[4] = system: GHRH hormone secretion; settings: in vivo; cited from earlier work

C[C@@H](O)[C@@H]1NC(=O)[C@H](CCCCN)NC(=O)[C@@H](Cc2c[nH]c3ccccc23)NC(=O)[C@H](Cc2ccccc2)NC(=O)[C@@H](NC(=O)[C@H](N)Cc2ccccc2)CSSC[C@@H](C(=O)N[C@H](CO)[C@@H](C)O)NC1=O [octreotide, octreotide acetate]
GERD symptoms after initiation of octreotide administration ([1]; one patient with terminal cancer, subcutaneous 150 microgram twice, then three times daily, then monthly IM Sandostatin LAR, symptoms present for many years): rapid and complete disappearance of GERD symptoms
duration of control of GERD symptomatology ([1]; same patient, until death from a complication of the cancer unrelated to therapy): maintained for several months
secretion of TNF-alpha, Interleukin-1 beta and Interleukin-6 [2]: inhibit
obstructive sleep apnea in patients with acromegaly [3]: ameliorated in many patients
GHRH hormone secretion [4]: inhibited
